compound: CC1(COc2ccc3c(c2)ncn3-c2ccc3cccc(N4CCC(N)CC4)c3n2)COC1 [Crenolanib] + Cc1nc(Nc2ncc(C(=O)Nc3c(C)cccc3Cl)s2)cc(N2CCN(CCO)CC2)n1 [Dasatinib] (partner 0.075 µM); experiment: relative viability (nuclei count vs DMSO), 5 days (fraction); higher = more cells survive; details: first compound 0.01 µM
How it was run: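 Lung cancer cell lines in 1536-well plates got either a single drug or a fixed anchor-drug dose together with five library-drug doses (not always all listed) in √10 steps, by pin tool, on the day after seeding. Nuclei were counted after 5 days, and relative viability is the treated-to-vehicle ratio of nuclei counts. Values are medians of duplicate plates.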

Cell Line	relative viability
NCI-H441	0.555
LOU-NH91	0.598
NCI-H2023	0.656
A-427	0.693
NCI-H460	0.506
NCI-H727	0.348
NCI-H1755	0.465
NCI-H520	0.244
NCI-H2405	0.225
SW 1573	0.539
NCI-H1395	0.406
201T	0.603
NCI-H1975	0.412
HOP-62	0.658
NCI-H2347	0.31
NCI-H1355	0.733
NCI-H650	0.493
CAL-12T	0.455

Cell Line	relative viability
NCI-H1666	0.791
H3255	0.323
NCI-H23	0.804
NCI-H1915	0.306
NCI-H1437	0.403
NCI-H322M	0.241
NCI-H2085	0.27
NCI-H1793	0.365
PC-3 [JPC-3]	0.989
EKVX	0.519
LCLC-103H	0.444
NCI-H1650	0.301
NCI-H1944	0.255
NCI-H1993	0.621
SK-LU-1	0.198
ABC-1	0.566
NCI-H358	0.146

same assay, conditions: first compound 0.03162 µM

Cell Line	relative viability
NCI-H441	0.669
LOU-NH91	0.53
NCI-H2023	0.603
A-427	0.723
NCI-H460	0.461
NCI-H727	0.364
NCI-H1755	0.472
NCI-H520	0.194
NCI-H2405	0.214
SW 1573	0.48
NCI-H1395	0.387
201T	0.602
NCI-H1975	0.348
HOP-62	0.703
NCI-H1355	0.704
NCI-H650	0.472
CAL-12T	0.51

Cell Line	relative viability
NCI-H1666	0.854
H3255	0.266
NCI-H23	0.778
NCI-H1915	0.271
NCI-H1437	0.369
NCI-H322M	0.258
NCI-H2085	0.26
NCI-H1793	0.412
PC-3 [JPC-3]	0.974
EKVX	0.473
LCLC-103H	0.454
NCI-H1650	0.338
NCI-H1944	0.234
NCI-H1993	0.63
SK-LU-1	0.182
ABC-1	0.718
NCI-H358	0.187

same assay, conditions: first compound 0.1 µM

Cell Line	relative viability
NCI-H441	0.601
LOU-NH91	0.527
NCI-H2023	0.669
A-427	0.699
NCI-H460	0.531
NCI-H727	0.338
NCI-H1755	0.395
NCI-H520	0.197
SW 1573	0.591
NCI-H1395	0.39
201T	0.569
NCI-H1975	0.352
